# From PubChem BioAssay (NCI)
#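 Interpolation was linear, between the two tested concentrations surrounding the appropriate level; five concentrations were tested over 48 hours in 96-well plates. GI50 = concentration required for 50% inhibition of growth. TGI denotes the concentration required for complete inhibition of growth.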
# Tests used:
# Experiment in all cases: growth of human tumour cells (NCI), 48 h
# [1] = test system: SNB-19 CNS
# [2] = test system: A498 renal
# [3] = test system: TK-10 renal
# [4] = test system: HL-60(TB) leukemia
# [5] = test system: NCI/ADR-RES ovarian
# [6] = test system: OVCAR-8 ovarian
# [7] = test system: UACC-257 melanoma
# [8] = test system: SK-MEL-28 melanoma
# [9] = test system: 786-0 renal
# [10] = test system: KM12 colon
# [11] = test system: OVCAR-4 ovarian
# [12] = test system: HCT-15 colon
# [13] = test system: M14 melanoma
# [14] = test system: SK-MEL-5 melanoma
# [15] = test system: LOX IMVI melanoma
# [16] = test system: SW-620 colon
# [17] = test system: EKVX NSCLC
# [18] = test system: HS 578T breast
# [19] = test system: SK-OV-3 ovarian
# [20] = test system: A549 NSCLC
# [21] = test system: OVCAR-5 ovarian
# [22] = test system: OVCAR-3 ovarian
# [23] = test system: NCI-H522 lung
# [24] = test system: T-47D breast
# [25] = test system: RXF 393 renal
# [26] = test system: CAKI-1 renal
# [27] = test system: SN12C renal
# [28] = test system: IGROV1 ovarian
# [29] = test system: NCI-H23 lung
# [30] = test system: MDA-MB-435
# [31] = test system: SF-268 CNS
# [32] = test system: DU-145 prostate
# [33] = test system: HCT-116 colon
# [34] = test system: U251 CNS
# [35] = test system: UACC-62 melanoma
# [36] = test system: UO-31 renal
# [37] = test system: NCI-H460 lung
# [38] = test system: MCF7 breast
# [39] = test system: HOP-62 NSCLC
# [40] = test system: NCI-H226 lung
# [41] = test system: SF-295 CNS
# [42] = test system: MALME-3M melanoma
# [43] = test system: SF-539 CNS
# [44] = test system: CCRF-CEM leukemia
# [45] = test system: PC-3 prostate
# [46] = test system: MDA-MB-231 breast
# [47] = test system: SR leukemia
# [48] = test system: MOLT-4 leukemia
# [49] = test system: K-562 leukemia
# [50] = test system: COLO 205 colon
# [51] = test system: HT29 colon
# [52] = test system: SK-MEL-2 melanoma
# [53] = test system: RPMI-8226 leukemia
# [54] = test system: HCC-2998 colon
# [55] = test system: ACHN renal
# [56] = test system: HOP-92 NSCLC
# [57] = test system: SNB-75 CNS
smiles,measurement,setting,value
CCOc1ccc2nc(S/C(=C/C=C(C#N)C#N)c3ccc(Cl)cc3)sc2c1,GI50,[1],6.72 µM
same,TGI,[1],24.5 µM
same,GI50,[2],2.46 µM
same,TGI,[2],8.6 µM
same,GI50,[3],2.91 µM
same,TGI,[3],9.83 µM
same,GI50,[4],3.08 µM
same,TGI,[4],34.3 µM
same,GI50,[5],2.32 µM
same,TGI,[5],5.19 µM
same,GI50,[6],3.48 µM
same,TGI,[6],10.3 µM
same,GI50,[7],9.1 µM
same,TGI,[7],22.1 µM
same,GI50,[8],3.81 µM
same,TGI,[8],15.9 µM
same,GI50,[9],1.95 µM
same,TGI,[9],4.37 µM
same,GI50,[10],3.84 µM
same,TGI,[10],15.2 µM
same,GI50,[11],12.4 µM
same,TGI,[11],43.8 µM
same,GI50,[12],2.42 µM
same,TGI,[12],8.81 µM
same,GI50,[13],2.13 µM
same,TGI,[13],4.61 µM
same,GI50,[14],1.76 µM
same,TGI,[14],3.86 µM
same,GI50,[15],0.546 µM
same,TGI,[15],2.03 µM
same,GI50,[16],0.631 µM
same,TGI,[16],2.92 µM
same,GI50,[17],12.9 µM
same,TGI,[17],28.9 µM
same,GI50,[18],4.22 µM
same,TGI,[18],16.8 µM
same,GI50,[19],4.34 µM
same,TGI,[19],15.3 µM
same,GI50,[20],16.4 µM
same,TGI,[20],33.2 µM
same,GI50,[21],15.2 µM
same,TGI,[21],28.5 µM
same,GI50,[22],2.99 µM
same,TGI,[22],10.9 µM
same,GI50,[23],4.43 µM
same,TGI,[23],15.2 µM
same,GI50,[24],3.91 µM
same,TGI,[24],17.4 µM
same,GI50,[25],5.3 µM
same,TGI,[25],23.5 µM
same,GI50,[26],4.34 µM
same,TGI,[26],15.3 µM
same,GI50,[27],2.86 µM
same,TGI,[27],8.18 µM
same,GI50,[28],3.57 µM
same,TGI,[28],13 µM
same,GI50,[29],3.1 µM
same,TGI,[29],10.1 µM
same,GI50,[30],3.18 µM
same,TGI,[30],9.84 µM
same,GI50,[31],4.63 µM
same,TGI,[31],19 µM
same,GI50,[32],3.51 µM
same,TGI,[32],10.7 µM
same,GI50,[33],0.937 µM
same,TGI,[33],2.6 µM
same,GI50,[34],0.628 µM
same,TGI,[34],4.29 µM
same,GI50,[35],3.21 µM
same,TGI,[35],12.5 µM
same,GI50,[36],8.08 µM
same,TGI,[36],27 µM
same,GI50,[37],7.49 µM
same,TGI,[37],25 µM
same,GI50,[38],6.56 µM
same,TGI,[38],26.7 µM
same,GI50,[39],4.08 µM
same,TGI,[39],13.2 µM
same,GI50,[40],3.63 µM
same,TGI,[40],13.2 µM
same,GI50,[41],9.85 µM
same,TGI,[41],28.3 µM
same,GI50,[42],3.52 µM
same,TGI,[42],21.9 µM
same,GI50,[43],3.6 µM
same,TGI,[43],9.24 µM
same,GI50,[44],0.57 µM
same,TGI,[44],3.19 µM
same,GI50,[45],4.16 µM
same,TGI,[45],11.8 µM
same,GI50,[46],1.91 µM
same,TGI,[46],5.08 µM
same,GI50,[47],1.96 µM
same,TGI,[47],7.8 µM
same,GI50,[48],1.65 µM
same,TGI,[48],> 100 µM
same,GI50,[49],3.43 µM
same,TGI,[49],18.3 µM
same,GI50,[50],3.26 µM
same,TGI,[50],11 µM
S=c1[nH]n2c(Cc3ccccc3)nnc2s1,TGI,[1],> 100 µM
same,TGI,[3],> 100 µM
same,TGI,[4],> 100 µM
same,TGI,[5],> 100 µM
same,TGI,[6],> 100 µM
same,TGI,[7],> 100 µM
same,TGI,[8],> 100 µM
same,TGI,[9],> 100 µM
same,TGI,[10],> 100 µM
same,TGI,[11],> 100 µM
same,TGI,[51],> 100 µM
same,TGI,[12],> 100 µM
same,TGI,[13],> 100 µM
same,TGI,[52],> 100 µM
same,TGI,[53],> 100 µM
same,TGI,[14],> 100 µM
same,TGI,[15],> 100 µM
same,TGI,[16],> 100 µM
same,TGI,[17],> 100 µM
same,TGI,[18],> 100 µM
same,TGI,[19],> 100 µM
same,TGI,[20],> 100 µM
same,TGI,[21],> 100 µM
same,TGI,[22],> 100 µM
same,TGI,[54],> 100 µM
same,TGI,[23],> 100 µM
same,TGI,[24],> 100 µM
same,TGI,[25],> 100 µM
same,TGI,[26],> 100 µM
same,TGI,[27],> 100 µM
same,TGI,[55],> 100 µM
same,TGI,[28],> 100 µM
same,TGI,[29],> 100 µM
same,TGI,[30],> 100 µM
same,TGI,[31],> 100 µM
same,TGI,[32],> 100 µM
same,TGI,[33],> 100 µM
same,TGI,[34],> 100 µM
same,TGI,[56],> 100 µM
same,TGI,[35],> 100 µM
same,TGI,[36],> 100 µM
same,TGI,[37],> 100 µM
same,TGI,[38],> 100 µM
same,TGI,[39],> 100 µM
same,TGI,[40],> 100 µM
same,TGI,[41],> 100 µM
same,TGI,[42],> 100 µM
same,TGI,[43],> 100 µM
same,TGI,[44],> 100 µM
same,TGI,[45],> 100 µM
same,TGI,[46],> 100 µM
same,TGI,[48],> 100 µM
same,TGI,[49],> 100 µM
same,TGI,[50],> 100 µM
Oc1c(C(O)c2ccccn2)ccc2ccccc12 (stereo not given),TGI,[1],> 100 µM
same,TGI,[4],42.1 µM
same,TGI,[5],> 100 µM
same,TGI,[6],> 100 µM
same,TGI,[7],> 100 µM
same,TGI,[10],> 100 µM
same,TGI,[12],97 µM
same,TGI,[13],> 100 µM
same,TGI,[14],> 100 µM
same,TGI,[15],> 100 µM
same,TGI,[17],> 100 µM
same,TGI,[18],> 100 µM
same,TGI,[20],> 100 µM
same,TGI,[22],> 100 µM
same,TGI,[54],59.4 µM
same,TGI,[23],74.1 µM
same,TGI,[24],> 100 µM
same,TGI,[25],> 100 µM
same,TGI,[27],> 100 µM
same,TGI,[55],> 100 µM
same,TGI,[29],> 100 µM
same,TGI,[31],> 100 µM
same,TGI,[32],> 100 µM
same,TGI,[33],> 100 µM
same,TGI,[34],> 100 µM
same,TGI,[35],46.1 µM
same,TGI,[36],> 100 µM
same,TGI,[39],> 100 µM
same,TGI,[40],> 100 µM
same,TGI,[41],> 100 µM
same,TGI,[43],> 100 µM
same,TGI,[44],> 100 µM
same,TGI,[45],> 100 µM
same,TGI,[48],> 100 µM
same,TGI,[49],> 100 µM
same,TGI,[57],> 100 µM
